From ChEMBL document CHEMBL5331110, “Eyes on Topical Ocular Disposition: The Considered Design of a Lead Janus Kinase (JAK) Inhibitor That Utilizes a Unique Azetidin-3-Amino Bridging Scaffold to Attenuate Off-Target Kinase Activity, While Driving Potency and Aqueous Solubility” (J Med Chem, 2023)
Values after ≈ are worked out from the molar mass of the structure shown.

How the values were obtained:
[1] = molecular target: Glycogen synthase kinase-3 beta (Homo sapiens, UniProt P49841)
Description: Inhibition of GSK3B (unknown origin) incubated for 45 to 120 mins in presence of ATP by Kinase-Glo luminescent assay

[2] = molecular target: Vascular endothelial growth factor receptor 2 (Homo sapiens, UniProt P35968)
Description: Inhibition of KDR (unknown origin) incubated for 45 to 120 mins in presence of ATP by Kinase-Glo luminescent assay

[3] = molecular target: Tyrosine-protein kinase JAK2 (Homo sapiens, UniProt O60674)
Description: Inhibition of JAK2 (unknown origin) incubated for 45 to 120 mins in presence of ATP by Kinase-Glo luminescent assay

Aurora kinase B = Aurora kinase B (Homo sapiens, UniProt Q96GD4)
Description: Inhibition of AURKB (unknown origin) incubated for 45 to 120 mins in presence of ATP by Kinase-Glo luminescent assay

[4] = molecular target: Tyrosine-protein kinase ABL1 (Homo sapiens, UniProt P00519)
Description: Inhibition of ABL1 (unknown origin) incubated for 45 to 120 mins in presence of ATP by Kinase-Glo luminescent assay

[5] = Intrinsic aqueous solubility of the compound in citrate buffer at pH 6 by HPLC-UV/MS analysis
[6] = Dissociation constant, pKa of the compound by potentiometric titration method
[7] = molecular target: T1, Tyrosine-protein kinase JAK3 (Homo sapiens, UniProt P52333)
T1 sequence (P52333 whole entry): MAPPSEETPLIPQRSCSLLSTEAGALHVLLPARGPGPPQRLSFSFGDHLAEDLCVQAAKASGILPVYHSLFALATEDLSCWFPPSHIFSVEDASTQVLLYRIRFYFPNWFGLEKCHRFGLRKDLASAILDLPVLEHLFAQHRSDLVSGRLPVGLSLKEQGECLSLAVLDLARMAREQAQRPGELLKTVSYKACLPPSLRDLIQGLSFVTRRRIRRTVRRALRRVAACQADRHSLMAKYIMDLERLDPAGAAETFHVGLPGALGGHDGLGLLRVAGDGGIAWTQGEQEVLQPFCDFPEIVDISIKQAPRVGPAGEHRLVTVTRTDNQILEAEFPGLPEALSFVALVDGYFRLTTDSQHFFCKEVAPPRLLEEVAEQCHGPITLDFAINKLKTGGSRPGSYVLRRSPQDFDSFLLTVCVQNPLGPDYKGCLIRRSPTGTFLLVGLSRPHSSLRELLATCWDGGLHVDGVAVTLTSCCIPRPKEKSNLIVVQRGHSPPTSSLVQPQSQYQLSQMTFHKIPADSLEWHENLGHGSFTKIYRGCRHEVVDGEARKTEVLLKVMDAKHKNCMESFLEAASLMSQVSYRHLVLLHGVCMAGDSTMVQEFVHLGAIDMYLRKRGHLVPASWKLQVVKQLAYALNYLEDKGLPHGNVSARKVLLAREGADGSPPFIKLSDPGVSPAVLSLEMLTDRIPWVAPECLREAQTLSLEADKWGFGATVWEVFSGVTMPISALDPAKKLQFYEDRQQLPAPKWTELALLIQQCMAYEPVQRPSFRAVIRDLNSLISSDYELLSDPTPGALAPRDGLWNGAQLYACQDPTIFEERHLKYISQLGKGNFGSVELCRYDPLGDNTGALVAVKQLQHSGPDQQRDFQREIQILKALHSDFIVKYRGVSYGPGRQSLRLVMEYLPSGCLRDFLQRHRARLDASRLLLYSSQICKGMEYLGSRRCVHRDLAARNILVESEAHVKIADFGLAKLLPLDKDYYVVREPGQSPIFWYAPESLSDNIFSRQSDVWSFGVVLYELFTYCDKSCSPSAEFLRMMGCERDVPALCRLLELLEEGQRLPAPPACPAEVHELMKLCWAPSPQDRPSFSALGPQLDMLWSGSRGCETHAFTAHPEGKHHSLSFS
Description: Inhibition of JAK3 (unknown origin) incubated for 45 to 120 mins in presence of ATP by Kinase-Glo luminescent assay

[8] = molecular target: Tyrosine-protein kinase JAK1 (Homo sapiens, UniProt P23458); assay: Inhibition of JAK1 (unknown origin) incubated for 45 to 120 mins in presence of ATP by Kinase-Glo luminescent assay
[9] = molecular target: Non-receptor tyrosine-protein kinase TYK2 (Homo sapiens, UniProt P29597)
Sequence of Non-receptor tyrosine-protein kinase TYK2 (P29597 whole entry): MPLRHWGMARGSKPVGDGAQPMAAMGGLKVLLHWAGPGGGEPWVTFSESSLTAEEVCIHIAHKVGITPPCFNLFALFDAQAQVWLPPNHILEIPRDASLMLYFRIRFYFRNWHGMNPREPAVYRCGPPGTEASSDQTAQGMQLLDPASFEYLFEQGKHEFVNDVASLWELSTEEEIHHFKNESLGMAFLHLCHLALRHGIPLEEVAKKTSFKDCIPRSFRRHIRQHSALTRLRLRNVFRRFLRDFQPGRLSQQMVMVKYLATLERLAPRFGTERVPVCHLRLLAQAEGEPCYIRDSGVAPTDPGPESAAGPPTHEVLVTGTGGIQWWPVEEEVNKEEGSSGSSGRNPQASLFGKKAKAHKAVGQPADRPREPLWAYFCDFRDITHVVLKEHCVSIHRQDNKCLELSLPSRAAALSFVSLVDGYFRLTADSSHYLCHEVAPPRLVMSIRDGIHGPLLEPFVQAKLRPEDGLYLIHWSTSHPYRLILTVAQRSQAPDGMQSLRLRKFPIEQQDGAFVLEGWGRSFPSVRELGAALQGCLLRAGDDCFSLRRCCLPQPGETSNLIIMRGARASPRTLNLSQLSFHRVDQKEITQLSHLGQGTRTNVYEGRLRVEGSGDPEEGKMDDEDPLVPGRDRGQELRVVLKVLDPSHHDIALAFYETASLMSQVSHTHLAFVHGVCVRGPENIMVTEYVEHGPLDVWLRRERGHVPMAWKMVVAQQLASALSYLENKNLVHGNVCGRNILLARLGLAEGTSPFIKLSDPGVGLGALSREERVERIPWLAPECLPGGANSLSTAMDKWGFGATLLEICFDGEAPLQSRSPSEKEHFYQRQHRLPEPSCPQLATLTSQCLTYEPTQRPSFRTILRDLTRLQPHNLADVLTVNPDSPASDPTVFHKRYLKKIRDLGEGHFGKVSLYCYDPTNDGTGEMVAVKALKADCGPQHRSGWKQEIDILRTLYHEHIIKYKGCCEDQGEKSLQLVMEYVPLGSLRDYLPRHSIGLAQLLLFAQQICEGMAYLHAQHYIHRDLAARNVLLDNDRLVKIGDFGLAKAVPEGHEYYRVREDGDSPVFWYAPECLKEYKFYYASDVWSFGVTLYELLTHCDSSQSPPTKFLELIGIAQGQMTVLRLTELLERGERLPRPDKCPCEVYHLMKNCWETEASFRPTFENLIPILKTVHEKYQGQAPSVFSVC
Description: Inhibition of TYK2 (unknown origin) incubated for 45 to 120 mins in presence of ATP by Kinase-Glo luminescent assay

Sequence of Aurora kinase B (Q96GD4 whole entry): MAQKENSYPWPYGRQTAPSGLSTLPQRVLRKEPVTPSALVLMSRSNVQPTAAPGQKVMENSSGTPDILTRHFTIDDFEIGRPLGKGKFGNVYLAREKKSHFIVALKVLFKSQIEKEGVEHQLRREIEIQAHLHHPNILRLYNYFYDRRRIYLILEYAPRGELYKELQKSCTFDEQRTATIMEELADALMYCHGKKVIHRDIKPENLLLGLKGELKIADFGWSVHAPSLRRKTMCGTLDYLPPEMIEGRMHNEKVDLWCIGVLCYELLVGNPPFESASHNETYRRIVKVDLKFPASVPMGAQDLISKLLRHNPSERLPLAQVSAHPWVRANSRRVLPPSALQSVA
Sequence of Glycogen synthase kinase-3 beta (P49841 whole entry): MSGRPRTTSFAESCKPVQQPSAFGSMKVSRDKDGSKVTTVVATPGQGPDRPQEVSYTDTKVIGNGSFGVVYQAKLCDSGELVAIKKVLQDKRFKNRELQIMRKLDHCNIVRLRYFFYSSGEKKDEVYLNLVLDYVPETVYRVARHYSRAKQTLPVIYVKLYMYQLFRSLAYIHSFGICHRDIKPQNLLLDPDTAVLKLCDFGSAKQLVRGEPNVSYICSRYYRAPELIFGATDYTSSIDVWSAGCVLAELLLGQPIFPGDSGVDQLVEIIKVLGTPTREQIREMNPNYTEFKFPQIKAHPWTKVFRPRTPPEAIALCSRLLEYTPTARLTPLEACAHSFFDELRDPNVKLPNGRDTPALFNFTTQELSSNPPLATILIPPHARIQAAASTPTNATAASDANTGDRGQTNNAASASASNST
Sequence of Tyrosine-protein kinase JAK2 (O60674 whole entry): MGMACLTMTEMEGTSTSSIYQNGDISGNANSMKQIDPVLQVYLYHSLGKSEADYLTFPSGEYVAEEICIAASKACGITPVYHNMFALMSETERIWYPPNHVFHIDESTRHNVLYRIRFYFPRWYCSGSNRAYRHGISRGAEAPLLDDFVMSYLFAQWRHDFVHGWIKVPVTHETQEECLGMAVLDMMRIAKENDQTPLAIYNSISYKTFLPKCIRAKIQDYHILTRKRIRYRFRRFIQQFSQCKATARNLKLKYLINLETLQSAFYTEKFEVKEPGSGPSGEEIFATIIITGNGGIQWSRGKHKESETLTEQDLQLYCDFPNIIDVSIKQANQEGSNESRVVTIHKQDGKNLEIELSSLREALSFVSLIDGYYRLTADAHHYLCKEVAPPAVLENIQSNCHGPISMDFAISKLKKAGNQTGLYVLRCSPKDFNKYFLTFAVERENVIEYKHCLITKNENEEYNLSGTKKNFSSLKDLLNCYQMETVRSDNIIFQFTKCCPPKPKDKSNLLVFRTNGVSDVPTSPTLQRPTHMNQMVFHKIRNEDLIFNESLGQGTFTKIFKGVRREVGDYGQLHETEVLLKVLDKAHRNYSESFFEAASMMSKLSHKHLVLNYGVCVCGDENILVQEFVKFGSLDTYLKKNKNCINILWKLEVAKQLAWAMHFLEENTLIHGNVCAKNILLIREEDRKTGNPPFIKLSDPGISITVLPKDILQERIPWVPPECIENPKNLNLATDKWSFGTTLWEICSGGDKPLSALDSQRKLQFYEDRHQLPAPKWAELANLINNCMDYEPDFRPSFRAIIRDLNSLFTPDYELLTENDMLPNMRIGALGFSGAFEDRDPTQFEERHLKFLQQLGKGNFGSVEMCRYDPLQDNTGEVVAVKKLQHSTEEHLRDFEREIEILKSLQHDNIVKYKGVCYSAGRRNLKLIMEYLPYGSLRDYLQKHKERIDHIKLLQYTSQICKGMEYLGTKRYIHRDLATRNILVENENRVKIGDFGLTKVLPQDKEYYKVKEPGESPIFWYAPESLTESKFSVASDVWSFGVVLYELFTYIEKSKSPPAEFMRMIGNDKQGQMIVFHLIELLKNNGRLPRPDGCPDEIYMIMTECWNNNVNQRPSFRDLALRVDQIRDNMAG
Sequence of Tyrosine-protein kinase JAK1 (P23458 whole entry): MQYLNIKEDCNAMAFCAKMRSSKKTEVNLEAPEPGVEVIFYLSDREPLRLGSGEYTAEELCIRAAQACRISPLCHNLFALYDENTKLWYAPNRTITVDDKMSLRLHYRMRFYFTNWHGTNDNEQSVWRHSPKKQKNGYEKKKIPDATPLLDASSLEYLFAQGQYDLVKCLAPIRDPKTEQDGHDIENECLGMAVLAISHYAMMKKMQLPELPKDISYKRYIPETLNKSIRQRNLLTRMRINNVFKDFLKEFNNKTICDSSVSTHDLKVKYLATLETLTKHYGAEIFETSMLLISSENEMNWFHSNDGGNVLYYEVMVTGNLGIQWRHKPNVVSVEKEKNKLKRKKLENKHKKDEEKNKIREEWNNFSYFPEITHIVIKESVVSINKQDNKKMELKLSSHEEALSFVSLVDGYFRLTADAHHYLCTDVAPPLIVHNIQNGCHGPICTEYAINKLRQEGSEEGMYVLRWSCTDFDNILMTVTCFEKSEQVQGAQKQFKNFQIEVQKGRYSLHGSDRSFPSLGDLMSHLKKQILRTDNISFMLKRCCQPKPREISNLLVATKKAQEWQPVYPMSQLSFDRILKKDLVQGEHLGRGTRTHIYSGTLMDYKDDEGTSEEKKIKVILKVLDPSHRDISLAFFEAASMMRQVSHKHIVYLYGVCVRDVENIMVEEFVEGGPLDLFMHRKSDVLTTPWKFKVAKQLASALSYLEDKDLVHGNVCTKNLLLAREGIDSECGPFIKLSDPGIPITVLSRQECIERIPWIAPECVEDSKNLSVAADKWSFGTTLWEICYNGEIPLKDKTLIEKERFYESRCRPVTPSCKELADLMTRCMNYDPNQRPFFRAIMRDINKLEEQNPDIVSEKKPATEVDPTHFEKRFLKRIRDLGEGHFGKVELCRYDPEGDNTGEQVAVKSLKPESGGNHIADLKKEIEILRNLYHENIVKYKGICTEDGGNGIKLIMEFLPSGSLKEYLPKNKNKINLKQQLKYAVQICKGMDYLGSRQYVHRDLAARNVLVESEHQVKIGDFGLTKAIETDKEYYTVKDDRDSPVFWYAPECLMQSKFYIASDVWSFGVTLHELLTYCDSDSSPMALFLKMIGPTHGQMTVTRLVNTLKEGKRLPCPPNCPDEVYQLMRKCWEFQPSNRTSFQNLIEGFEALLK

| Compound | IC50 [1] [nM] | IC50 [2] [nM] | IC50 [3] [nM] | IC50 (Aurora kinase B) [nM] | IC50 [4] [nM] | solubility [5] [µM] | pKa [6] | IC50 [7] [nM] | IC50 [8] [nM] | IC50 [9] [nM] |
| --- | --- | --- | --- | --- | --- | --- | --- | --- | --- | --- |
| Cc1cnc(Nc2ccc(N3CCOCC3)cc2)nc1-c1cnn(CCC#N)c1 | – | – | 2 | – | – | 13 (≈ 5.06 µg/mL) | 4.2 | 18 | 15 | 2 |
| Cc1cc(Nc2ncc(C)c(-c3cnn(CCC#N)c3)n2)sn1 | – | – | 2 | 2.5 | 207 | – | – | 14 | 3 | 1.5 |
| Cc1cc(Nc2ncc(C)c(N3CC(CC#N)(N4CCCC4)C3)n2)sn1 | – | – | – | 22 | – | – | – | – | – | – |
| Cc1cnc(Nc2cnn(C)c2)nc1-c1cnn(CCC#N)c1 | – | – | – | – | – | 69 (≈ 21.3 µg/mL) | – | 55 | 12 | 3.4 |
| Cc1cc(Nc2ncc(C)c(N3CC4CCC(C3)N4CC#N)n2)sn1 | 1680 | 221 | 3.9 | 4 | 1310 | 11 (≈ 3.91 µg/mL) | – | – | – | – |
| Cc1cc(Nc2cc(-c3cnn(CCC#N)c3)c(Cl)cn2)sn1 | – | – | – | – | – | – | – | – | 50000 | 50000 |
| Cc1cc(Nc2ncc(C)c(N3CC(CC#N)C3)n2)sn1 | – | – | 9 | 6 | – | – | – | – | – | – |
| Cc1cc(Nc2ncc(Cl)c(-c3cnn(CCC#N)c3)n2)sn1 | – | – | – | – | – | – | – | – | 3 | 1.5 |
| Cc1cc(Nc2ncc(C)c(N3CC(CC#N)(N4CCN(C)CC4)C3)n2)sn1 | – | – | – | 441 | 21400 | – | – | 70 | – | 2.9 |
| Cc1cnc(Nc2cnn(C)c2)nc1N1CC2CCCC(C1)N2CCC#N | 9900 | 936 | 3.4 | 19 | – | – | – | 11 | 2 | 3.4 |
| Cc1cnc(Nc2ccccc2)nc1-c1cnn(CCC#N)c1 | – | – | 6 | – | – | 52 (≈ 15.8 µg/mL) | – | 143 | 50 | 11 |
| Cc1cc(Nc2ncc(C)c(N3CC(O)(C4CC4)C3)n2)sn1 | – | – | 2.5 | 0.97 | 80 | – | – | – | – | – |
| Cc1cnc(Nc2cnn(C)c2)nc1-c1cnn([C@H](CC#N)C2CCCC2)c1 | 395 | – | 0.98 | 7 | 351 | – | – | 3.4 | 0.99 | 0.98 |
| Cc1cc(Nc2ncc(C)c(N3CCN(CC#N)C(C)C3)n2)sn1 (stereo not given) | 1360 | 55 | 3 | 3 | 1240 | 19 (≈ 6.53 µg/mL) | – | – | – | – |
| Cc1cc(Nc2ncc(C)c(N3CC(C4CC4)C3)n2)sn1 | – | – | 3.4 | 21 | – | – | – | – | – | – |
| Cc1cnc(Nc2ccc(N3CCN(C)CC3)cc2)nc1-c1cnn(CCC#N)c1 | – | – | 2 | – | – | 33500 (≈ 13500 µg/mL) | – | 16 | 13 | 2 |
| Cc1cc(Nc2ncc(C)c(N3CC4CCCC(C3)N4CC#N)n2)sn1 | 3240 | 1580 | 5.4 | 364 | 2030 | 35 (≈ 12.9 µg/mL) | – | – | – | – |
| Cc1cnc(Nc2cnn(C)c2)nc1N1CC2CCCC(C1)N2CC#N | 36400 | 7390 | 61 | 913 | 16800 | 7090 (≈ 2500 µg/mL) | – | – | – | – |

The remaining lines, values ahead:

| IC50 [1] [nM] | IC50 [2] [nM] | IC50 [3] [nM] | IC50 (Aurora kinase B) [nM] | IC50 [4] [nM] | solubility [5] [µM] | pKa [6] | IC50 [7] [nM] | IC50 [8] [nM] | IC50 [9] [nM] | Compound |
| --- | --- | --- | --- | --- | --- | --- | --- | --- | --- | --- |
| 311 | 96 | 0.98 | 1.5 | – | – | – | – | – | – | Cc1cc(Nc2ncc(C)c(N3CC4CCC(C3)N4CCC#N)n2)sn1 |
| 2200 | 30 | 1.5 | 22 | 228 | 16 (≈ 5.5 µg/mL) | – | – | – | – | Cc1cc(Nc2ncc(C)c(N3CCN(CC#N)[C@@H](C)C3)n2)sn1 |
| – | – | 34 | 764 | 50000 | – | – | – | – | – | Cc1cnc(Nc2cnn(C)c2)nc1N1CC(CC#N)(N2CCN(C)CC2)C1 |
| – | – | 27 | – | – | – | – | – | 538 | 49 | Cn1cc(Nc2nccc(-c3cnn(CCC#N)c3)n2)cn1 |
| – | – | – | 1.1 | – | – | – | – | – | – | Cc1cc(Nc2ncc(C)c(N3CCC(CC#N)CC3)n2)sn1 |
| – | – | 41900 | – | – | 390 (≈ 122 µg/mL) | – | 50000 | 50000 | 50000 | Cc1cnc(NC2CCOCC2)nc1-c1cnn(CCC#N)c1 |
| – | – | 8 | 187 | 10300 | – | – | – | – | – | Cc1cc(Nc2ncc(C)c(N3CC(CC#N)(OC4CC5(CC5)C4)C3)n2)sn1 |
| – | – | 4.4 | – | 8430 | – | – | – | – | – | Cc1cc(Nc2ncc(C)c(N3CC(CC#N)(N4CCCCC4)C3)n2)sn1 |
| 1620 | 41 | 3.4 | 1.5 | 467 | 7 (≈ 2.31 µg/mL) | – | – | – | – | Cc1cc(Nc2ncc(C)c(N3CCN(CC#N)CC3)n2)sn1 |
| – | – | 19500 | – | – | – | – | 50000 | 50000 | – | Cc1cnc(NCCN2CCOCC2)nc1-c1cnn(CCC#N)c1 |
| – | – | 13 | 3 | 568 | – | – | – | – | – | Cc1cc(Nc2ncc(C)c(N3CC(CCC#N)C3)n2)sn1 |
| 565 | 109 | 0.98 | 2.5 | 537 | 11 (≈ 4.22 µg/mL) | – | – | – | – | Cc1cc(Nc2ncc(C)c(N3CC4CCCC(C3)N4CCC#N)n2)sn1 |
